In article PMC3944389, “Differential Neuroprotective Effects of 5′-Deoxy-5′-Methylthioadenosine” (PLoS ONE, 2014):

Legend:
[1] = system: Sprague-Dawley rats, pilocarpine-induced status epilepticus; assay: Pilocarpine-induced status epilepticus (SE) model; type: in vivo, rat
Method: Young adult (175–200 g) male Sprague-Dawley rats from Charles River (Wilmington, MA, US) were divided into four MTA treatment groups, with 9–11 rats per group. In group A, rats were subjected to pilocarpine-induced status epilepticus (SE) as described previously. Following 90 min of continuous seizure activity, SE was stopped by administering a single dose of diazepam (10 mg/kg). The rats were then injected daily for 3 days with either the vehicle alone (2% DMSO in H2O), injecting a volume of body weight x 3.3 (a similar volume as for the MTA treated groups), or MTA (30 mg/kg). Rats were euthanized on day 4 after SE under anesthesia by transcardiac perfusion with 4% paraformaldehyde (PFA) in phosphate-buffered saline. The brains were removed, postfixed in 4% PFA, cryoprotected in 30% sucrose, frozen, and sectioned for histology. In group B, the rats received the same treatment as those in group A (vehicle or MTA 30 mg/kg) except that the rats were perfused on day 30 after SE and a 0,37% sulphide fixative was used for subsequent Timm staining. In group C, the rats were only treated with MTA (30 mg/kg) or the vehicle for 2 days and on the third day, the rats were again subjected to pilocarpine-induced SE. The animals were then treated once daily with MTA (30 mg/kg) or vehicle for a further 3 days, and they were anesthetized and euthanized 4 days after SE. […]
Mouse and rat coronal sections were mounted on glass slides in a 0.2% solution of gelatin in 0.05 M Trizma base [pH 7.6] […] To evaluate sprouting of the zinc-containing mossy fibers in the dentate gyrus inner molecular layer, Timm-stained sections were analyzed by an examiner blinded to experimental condition. […] Twelve samples of pixel density/section were measured in the inner molecular layer using NIH ImageJ, 5 from the lower blade, 5 from the upper blade and 2 from the apex. The average background level (mean of 12 samples/section) was subtracted and a mean pixel density calculated for each animal (n = 4–5/group). […]

[2] = system: C57Bl mice treated with MPTP; assay: MPTP mouse model of Parkinson's disease, stereological counting of TH+ neurons; type: in vivo; settings: MTA 30 mg/kg, MSX-3 10 mg/kg (legend: 9 mg/kg), alone or combined; MPTP 30 mg/kg i.p. 5 days
Method: 12-week-old male C57Bl mice from Charles River (Barcelona, Spain) were injected i.p. with 30 mg/kg 1-methyl-4-phenyl-1,2,3,6-tetrahydropyridine (MPTP, Sigma-Aldrich) on five consecutive days. Subsequently, MTA (30 mg/kg) and/or the A2A adenosine receptor (A2AR, 10 mg/kg) antagonist, MSX-3 (Sigma-Aldrich), was administered one day before starting MPTP treatment and 1 h after each MPTP injection (n = 6 in each experimental group). We used mice in the MPTP model because rats are resistant to systemic MPTP administration and thus, the rat MPTP model requires stereotaxic MPTP injection directly into the nigrostriatal fibers. […]
The reference volume was calculated according to Cavalieri principles from images obtained with a 2× objective using a point count array. The cross-sectional area of the nucleus was measured and the reference volume (Vr) for the entire nucleus was estimated using the following equation: [drawing 1] where T is the thickness of the sections, a/p is the area of each point and Pi is the number of points that landed within the area. The region of interest to estimate the area was outlined at low magnification (4×), and the number of labeled neurons was calculated under 100× magnification (with oil immersion) using randomized meander sampling and the optical dissector methods. […]

Substance: 5′-deoxy-5′-methylthioadenosine [MTA]
- mossy fiber sprouting (Timm staining) ([1]; MTA 30 mg/kg pre-SE or post-SE, 30 days after SE): No difference
- neurodegeneration and neuronal loss in hippocampal areas (NeuN immunoreactivity) ([1]; MTA 30 mg/kg/day before or after SE, early (3-5 days) and late (30 days) time points): reduced the neurodegeneration and neuronal loss
- neuronal loss in the CA3 and CA1 hippocampal areas (stereological counting of NeuN-immunoreactive cells) ([1]; MTA 30 mg/kg/day prior to SE, 30 days after SE): significant reductions
- neuroprotection: TH+ neurons in the substantia nigra [2]: not statistically significant
